Laboratory results reported in patent US20100254940A1, “Compositions and Methods for Regulating an Immune Response in a Subject” (INNATE PHARMA, S.A., priority 2002, published 2010).
Where “and” joins values, the source holds several entries; their conditions need not be identical. Equal entries are not always repeated.

Columns and labels:
Vg9Vd2 T cells = assay: Peripheral Vg9Vd2 T cell expansion in cynomolgus monkeys by flow cytometry (BrHPP non-GLP studies); type: in vivo, cynomolgus monkeys (M. fascicularis); details: for Absolute increase of Vg9Vd2: individual animals
Description: • Group 1: 5 purpose bred healthy male cynomolgus monkeys (M. fascicularis), supplied by C.R.P. Le Vallon, Ferney S.E., Mahebourg, Mauritius. At the beginning of the study, body weights range from 3.7 to 4.6 kg. • Group 2: 10 purpose bred healthy cynomolgus monkeys (5 males and 5 females), supplied by C.R.P. Le Vallon. At the beginning of the study, body weights range from 1.8 to 3.5 kg and ages from 2 to 3 years.
• Group 1: animals were anaesthetised with intra-muscular injection of 6 mg/kg ZoletilND 100 (Tiletamine-Zolazepam, Virbac, Carros, France) before any injection or blood taking. • Group 2: injections and blood taking were performed on manually restrained non-anaesthetised animals. • 4-day BrHPP alone treatment (group 1): 2 animals received 1 mg/kg of BrHPP in 10 ml saline on day 0 (microflex infusion set introduced into the external saphenous vein) and then 4 mg/kg, 16 mg/kg and 32 mg/kg in 20 ml saline on days 1, 2 and 3 by the same way. (Duration of infusion: 10 to 15 min). • BrHPP/IL2 co-treatments (group 1): 5 animals received either 20 mg/kg once or 4 mg/kg (16.7 mg/kg or 3.3 mg/kg of BrHPP anionic form) 5 times daily of BrHPP in final 50 ml saline by the same way as above (duration of infusion: 30 min). IL2 (18 million UI per vial, Proleukin®, Chiron, US) was resuspended in 1 ml sterile water and diluted to 10 ml with 4% HSA for a final concentration of 1.8 million UI/ml. In a first cycle of treatment, all animals received the same dose of IL2 consisting of 5 days of twice daily injections of 0.9 million units IL2. In a second cycle of treatment, animals received subcutaneously the following IL2 treatment: 0.15 million units twice daily for 9 days (animal Z059), 0.3 million units twice daily for 5 days (Z135), 0.9 million units twice daily for 5 days (animal Z714) or 9 days (animal X973).
A single animal received 80 mg/kg (66.6 mg/kg anionic form) BrHPP+9 days of IL2 co-treatment consisting of a single daily subcutaneous injection of 0.6 million units. • BrHPP/IL2 co-treatments (group 2): BrHPP was diluted in saline to the appropriate final concentration (depending on the dose to inject and on the last recorded body weight) so as to inject always approximately 50 ml in 30 min (microflex infusion set introduced into cephalic or external saphenous vein). All animals received 0.6 million IU IL2 per day for 7 days. IL2 was administered subcutaneously as 2 separate injections of 0.3 million IU IL2 in sterile water, 8-hour apart. Control animals received IL2 only.
Twice weekly blood samples (1 to 4 ml) were withdrawn from femoral vessels/artery into EDTA containing tubes. Tubes were shipped overnight at room temperature (RT) before flow cytometry analyses.
Peripheral γδ lymphocytes were analysed twice weekly by flow cytometry on total monkey blood, after double staining with anti-CD3-PE antibody and anti-Vgamma9-FITC antibodies and/or anti Vd2 antibodies (CD3-PE: SP34 clone, BD Biosciences Pharmingen, Le Pont de Claix, France). Anti Vgamma 9, clone 7B6 is a monoclonal raised to human Vgamma 9 but that cross-reacts with cynomolgus cells. It was purified by affinity chromatography on protein A and coupled to FITC as previously described.
Briefly, 50 μl monkey blood is incubated 15 min at RT with 5 μl anti-CD3-PE and 6 μl anti-delta2-FITC or 10 μl anti-gamma9-FITC antibodies. Antibodies are washed with 3 ml 1×PBS, centrifuged for 4 min at 1300 rpm at RT and supernatant is discarded. Red cells are lysed with the OptiLyse C reagent (Immunotech-Beckman-Coulter, Marseilles, France) according to the manufacturer's instructions. At the final step, stained white blood cells are recovered by centrifugation and resuspended in 300 μl PBS+0.2% PFA.

γδ T cell = assay: In vitro TNFα release assay, γδ T cell amplification from human PBMCs (in the presence of rhIL2); type: cell-based; details: TNFα release assay; human PBMCs, rhIL2
Description: The in vitro biological activity of γδ T cell amplification from human PBMCs (in the presence of rhIL2) was assessed using a TNFα release assay.
Cytokine secretion and cytolytic activity can be assessed using any appropriate in vitro assay, or those provided in the examples herein. For example, cytokine secretion can be determined according to the methods described in Espinosa et al. (J. Biol. Chem., 2001, Vol. 276, Issue 21, 18337-18344), describing measurement of TNF-α release in a bioassay using TNF-α-sensitive cells. Briefly, 10^4 γδT cells/well were incubated with stimulus plus 25 units of IL2/well in 100 μl of culture medium during 24 h at 37° C. Then, 50 μl of supernatant were added to 50 μl of WEHI cells plated at 3×10^4 cells/well in culture medium plus actinomycin D (2 μg/ml) and LiCl (40 mM) and incubated for 20 h at 37° C. Viability of the TNF-α-sensitive cells and measured with a 3-(4,5-dimethylthiazol-2-yl)-2,5-diphenyltetrazolium bromide assay. 50 μl of 3-(4,5-dimethylthiazol-2-yl)-2,5-diphenyltetrazolium bromide (Sigma; 2.5 mg/ml in phosphate-buffered saline) per well were added, and after 4 h of incubation at 37° C., 50 μl of solubilization buffer (20% SDS, 66% dimethyl formamide, pH 4.7) were added, and absorbance (570 nm) was measured. Levels of TNF-α release were then calculated from a standard curve obtained using purified human rTNF-α (PeproTech, Inc., Rocky Hill, N.J.). Interferon-γ released by activated T cells was measured by a sandwich enzyme-linked immunosorbent assay. 5×10^4 γδT cells/well were incubated with stimulus plus 25 units of IL2/well in 100 μl of culture medium during 24 h at 37° C. Then, 50 μl of supernatant were harvested for enzyme-linked immunosorbent assay using mouse monoclonal antibodies (BIOSOURCE, Camarillo, Calif.). […]
BrHPP and HDMAPP bioactivity were compared using in vitro and in vivo assays. The in vitro biological activity of γδ T cell amplification from human PBMCs (in the presence of rhIL2) was assessed using a TNFα release assay.

[1] = highest concentration (160 mg/kg), second injection + IL2

3-(bromomethyl)-3-butanol-1-yl-diphosphate [BrHPP]
% and absolute numbers of Vg9Vd2 (Vg9Vd2 T cells; 0.2 mg/kg + IL2 7 days): undistinguishable from the control animals | peak of increase in peripheral γδ cells (Vg9Vd2 T cells; 20 mg/kg once or 4 mg/kg x 5 + IL2, group 1): 7 days | % and absolute numbers of Vg9Vd2 (Vg9Vd2 T cells; 4 to 80 mg/kg + IL2, day 7): A dose range effect was observed | expansion at recall (Vg9Vd2 T cells; first 20 mg, then 80 mg): expansions comparable to animals treated with 80 mg/kg at the first injection | expansion at recall (Vg9Vd2 T cells; first 80 mg/kg, then 20 mg/kg, vs first injection at 20 mg/kg): decreased expansion | % of Vg9Vd2 (Vg9Vd2 T cells; five daily injection of 0.2 mg/kg BrHPP alone, 4 monkeys): expansion was not significant | Follow up of Vg9Vd2 (Vg9Vd2 T cells; four daily injections 1, 4, 16, 32 mg/kg BrHPP alone, two animals): a decrease at day two post first injection | increase of Vg9Vd2 (Vg9Vd2 T cells; fourth injection of 80 mg/kg BrHPP and IL2, five animals): detectable increase of Vg9Vd2 although lower than that obtained in the third injection | absolute numbers of Vg9Vd2 (mean) (Vg9Vd2 T cells; [1]): 10,000 Vg9Vd2 cells/mm3 | level of circulating Vg9Vd2 among circulating CD3 positive cells (Vg9Vd2 T cells; [1]): about 80% | Absolute increase of Vg9Vd2 (Vg9Vd2 T cells; same dose split in 5 daily injections of 4 mg/kg + IL2 5 days, 4 mg/kg): 8 × and 18 × | amplification rate at the second injection vs first (Vg9Vd2 T cells; second single shot 20 mg/kg + IL2, animals with 5 daily 4 mg/kg at first injection): slightly higher amplification rate | amplification rate in the second injection vs first (Vg9Vd2 T cells; second single shot 20 mg/kg + IL2, animals with single shot at first injection): slightly reduced amplification rate | Absolute increase of Vg9Vd2 (Vg9Vd2 T cells; single dose 20 mg/kg + IL2 5 days, 20 mg/kg): 30 × and 40 × | increase of Vγ9Vδ2 (Vg9Vd2 T cells; third cycle 80 mg/kg + IL2, control animal which received only IL2 in first two courses): around 40 | increase of Vγ9Vδ2 at the third injection (Vg9Vd2 T cells; third injection 80 mg/kg + IL2, animal 2034): 28 × | amplification of Vγ9Vδ2 (Vg9Vd2 T cells; third injection 80 mg/kg + IL2, three other animals): lower than 40 | mean increase of peripheral γδ cell number (Vg9Vd2 T cells; total amount of 20 mg/kg BrHPP + IL2, day 7): 24 fold | EC50 (γδ T cell): ~30 nM
